Drawing on US20190144375A1, “NOVEL CARBOCYCLIC COMPOUNDS AS ROR GAMMA MODULATORS” (Glenmark Pharmaceuticals S.A., priority 2015, published 2019), this text covers inhibition and IC50 for nine molecules.

One may read the inhibition as the relative decrease from the control value, in per cent. The IC50 is the midpoint of a concentration-inhibition curve.

In this experiment the target is T1, GST-tagged ROR gamma ligand binding domain (LBD) (Homo sapiens, UniProt P51449).
T1 construct: purchased Invitrogen
T1 sequence (P51449 269-508 limits assumed): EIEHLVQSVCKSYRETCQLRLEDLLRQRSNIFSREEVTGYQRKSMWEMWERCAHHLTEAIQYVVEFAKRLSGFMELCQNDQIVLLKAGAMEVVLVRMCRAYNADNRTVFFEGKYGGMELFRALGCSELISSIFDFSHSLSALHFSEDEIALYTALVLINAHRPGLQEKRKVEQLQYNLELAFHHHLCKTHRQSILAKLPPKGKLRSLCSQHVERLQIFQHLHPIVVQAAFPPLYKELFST
The experiment is described as follows: TR-FRET assay for ROR gamma (LanthaScreen, Fluorescein-D22 co-activator peptide recruitment). The class given is biochemical. Conditions: for inhibition at 1 µM: 1 μM compound; for inhibition at 1 µM / inhibition at 10 µM: TR-FRET ratio 520/495; for inhibition at 10 µM: 10 μM compound; for IC50: dose response curve, class symbols. The text has this:
The compounds described herein were screened for ROR gamma modulator activity using the TR-FRET assay (LanthaScreen™ available from Invitrogen of Carlsbad, Calif.) as described in JBC 2011, 286, 26: 22707-10; and Drug Metabolism and Disposition 2009, 37, 10: 2069-78.
The assay is based on the principle that binding of the agonist to the ROR gamma causes a conformational change around helix 12 in the ligand binding domain, resulting in higher affinity for the co-activator peptide. ROR gamma being constitutively active, the Fluorescein-D22 co-activator peptide used in the assay is recruited in the absence of a ligand. Binding of the co-activator peptide, causes an increase in the TR-FRET signal while binding of an antagonist decreases the recruitment of the co-activator peptide, causing a decrease in the TR-FRET signal compared to control with no compound. The assay was performed using a two-step procedure, pre-incubation step with the compound followed by the detection step on addition of the anti-GST tagged terbium (Tb) and fluorescein tagged fluorophores as the acceptor.
Test compounds or reference compounds such as T0901317 (Calbiochem) were dissolved in dimethylsulfoxide (DMSO) to prepare 10.0 mM stock solutions and diluted to the desired concentration. The final concentration of DMSO in the reaction was 4% (v/v). The assay mixture was prepared by mixing 10 nM of the GST-tagged ROR gamma ligand binding domain (LBD) in the assay buffer containing 25 mM HEPES, 100 mM NaCl, 5 mM DTT and 0.01% BSA with or without the desired concentration of the compound. The reaction was incubated at 22° C. for 1 hour. The pre-incubation step was terminated by addition of the detection mixture containing 300 nM Fluorescein-D22 co-activator peptide and 10 nM lantha screen Tb-anti GST antibody into the reaction mixture. After shaking for 5 minutes the reaction was further incubated for 1 hour at room temperature and read […] on an Infinite F500 reader as per the kit instructions (Invitrogen). The inhibition of test compound was calculated based on the TR-FRET ratio of 520/495. The activity was calculated as a percent of control reaction. IC50 values were calculated from dose response curve by nonlinear regression analysis using GraphPad Prism software.
Percentage inhibition at concentrations of 1.0 μM and 10.0 μM are given in the table along with IC50 (nM) details for selected examples.

For `Cc1cccc(Cl)c1N(C)C(=O)c1ccc(NC(=O)Cc2ccc(C(F)(F)C(C)O)cc2)cc1` (stereo not drawn) [Example 31], the inhibition at 1 µM is 79.1%, the inhibition at 10 µM stood at 86.6% and the IC50 was in the range of 50 to 100 nM.
As for `Cc1cc(C)c(N(C)C(=O)c2ccc(NC(=O)Cc3ccc(C(F)(F)C(C)O)cc3)cc2)c(C)c1` (stereo not drawn) [Example 32], the inhibition at 1 µM worked out at 84.9%, the inhibition at 10 µM was found to be 95% and the IC50 was 50 to 100 nM.
On to `Cc1cc(C)c(N(C)C(=O)c2ccc(NC(=O)Cc3ccc(C(F)(F)C(C)O)cc3)cc2)c(Cl)c1` (stereo not drawn) [Example 33], for which the inhibition at 1 µM was 86.8%, the inhibition at 10 µM was found to be 90.2% and the half-maximal inhibitory concentration (IC50) is under 50 nM.
The corresponding values for `Cc1ccc(N(C)C(=O)c2ccc(NC(=O)Cc3ccc(C(F)(F)C(C)O)cc3)cc2)c(C2CC2)c1` (stereo not drawn) [Example 34] are 91.8%, 92.6% and under 50 nM.
Consider `Cc1cc(C)cc(N(C)C(=O)c2ccc(NC(=O)Cc3ccc(C(F)(F)[C@@H](C)O)cc3)cc2)c1` [Example 36], for which the inhibition at 1 µM is 89.7%, the inhibition at 10 µM came to 94.5% and the IC50 is under 50 nM.
On to `Cc1cc(N(C)C(=O)c2ccc(NC(=O)Cc3ccc(C(F)(F)C(C)O)cc3)cc2)c(F)cc1Cl` (stereo not drawn) [Example 37], for which the inhibition at 1 µM came to 93.9%, the inhibition at 10 µM was 96.3% and the 50% inhibitory concentration (IC50) was under 50 nM.
On to `CC(O)C(F)(F)c1ccc(CC(=O)Nc2ccc(C(=O)N(C)c3ccc(C4CC4)cc3Cl)cc2)cc1` (stereo not drawn) [Example 38], for which the inhibition at 1 µM is 92.6%, the inhibition at 10 µM came to 94.8% and the concentration for half-maximal inhibition (IC50) is under 50 nM.
On to `Cc1ccc(C2CC2)cc1N(C)C(=O)c1ccc(NC(=O)Cc2ccc(C(F)(F)C(C)O)cc2)cc1` (stereo not drawn) [Example 39], for which the inhibition at 1 µM was found to be 84.1%, the inhibition at 10 µM was determined as 92% and the half-maximal inhibitory concentration (IC50) was under 50 nM.
As for `CC(O)C(F)(F)c1ccc(CC(=O)Nc2ccc(C(=O)N(C)c3cc(C4CC4)ccc3Cl)cc2)cc1` (stereo not drawn) [Example 40], the inhibition at 1 µM was found to be 90.8%, the inhibition at 10 µM was determined as 94.3% and the IC50 was under 50 nM.
